Here are results for one molecule from patent US6984645B2, “Dual inhibitors of adipocyte fatty acid binding protein and keratinocyte fatty acid binding protein” (Bristol-Myers Squibb Company, priority 2001, dated 2006).

Broadly, the melting point is the temperature, or range, at which the solid turns liquid.

The structures appear in SMILES notation.

`O=C(Nc1cccc(C(=O)O)c1OCc1ccccc1Cl)c1ccccc1Cl` [Example 392, 3-[(2-Chlorobenzoyl)amino]-2-[(2-chlorophenyl)methoxy]benzoic acid]: the melting point was 182 to 183 °C.
